Experimental data reported in patent publication US7455860B2, “Dietary supplement formulation for controlling inflammation and cancer” (Laila Nutraceuticals, priority 2005, dated 2008).
Several values for one entry are separate records, joined by “and”; a condition that tells them apart may be missing. Equal values may be shown once.

Key:
[1] = test system: Freund's Adjuvant-Induced Arthritis; assay: Freund's Adjuvant-Induced Arthritis in Wistar Albino rats (paw volume by Plethysmograph); format: in vivo
Experimental: Effect of 5-LOXIN compositions on Freund's Adjuvant-Induced Arthritis in Winstar Albino rats: Wistar Albino rats of either sex were selected randomly and divided into groups containing 6 rats (3 male and 3 female) each. The rats of treatment groups were administered orally a suspension of 5-LOXIN (15 mg/kg, p.o.) or glucosamine salt (135 mg/kg, p.o.) or curcuminoids (20 mg/kg, p.o.) or ginger (3 mg/kg, p.o.) or one fifth of a formulation containing unit doses of all the four ingredients [formulation I: 5-LOXIN (15 mg)+glucosamine (135 mg)+curcuminoids DP 95% (20 mg)+Ginger DP 15% total pungent compounds (3 mg)]or prednisolone (10 mg/kg, p.o.) in 0.5% CMC, for 30 days. The control group received 0.5% CMC. Following the drug treatment all animals were challenged, on 31st day, with 50 μl of complete Freund's adjuvant injection to the sub plantar region of right hind paw. The paw volume was measured before (V0) and after the injection of Freund's adjuvant at the end of 30, 60, 120, 180, 240 and 360 min by Plethysmograph. The paw oedema was measured everyday upto 17th day.

degenerative arthritis = conditions: treatment group; 20% in placebo group; cited from earlier work

Row | Structure (SMILES) | % protection ([1]; day 13, against control group mean oedema 0.478) [%] | Day-13 E, ME (mean oedema of the group) ([1]; group mean, oral treatment for 30 days) [mL] | Paw Volume After Freund's Adjuvant, Day-13 E (oedema) ([1]; individual rat, Day-13 PV minus 0 hr, oral treatment for 30 days, hydrochloride) | Paw Volume After Freund's Adjuvant, Day-13 PV ([1]; individual rat, oral treatment for 30 days, adjuvant on 31st day, read on day 13, dose per sample in table, hydrochloride) | Improvement in degenerative arthritis (degenerative arthritis) [%]
1 | Cl.N[C@H]1C(O)O[C@H](CO)[C@@H](O)[C@@H]1O (some centres unmarked) [Glucosamine, glucosamine hydrochloride] | 37.94 | 0.30 | 0.37 mL and 0.3 mL and 0.22 mL | 1.56 mL and 1.59 mL and 1.53 mL | –
2 | CS(C)(=O)=O [MSM, Methylsulfonylmethane] | – | – | – | – | 80
